# Data published in the supplement of paper PMC8960247.
# ± gives the standard error.
# Tests used:
# 621-102 (TSC2-deficient) = assay: relative viability vs DMSO; higher = less cytotoxic; conditions: serum: 10% FBS, 72 h
# 621-103 (TSC2-rescued) = assay: as above; conditions: serum: 10% FBS, 72 h
# 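Also: immortalized renal angiomyolipoma cells stably carrying empty vector or TSC2, dosed in 384-well plates in DMEM, viability normalized to vehicle-treated wells within each plate.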
SMILES,relative viability (621-102 (TSC2-deficient); 0.0001 µM) [%],relative viability (621-102 (TSC2-deficient); 0.001 µM) [%],relative viability (621-102 (TSC2-deficient); 0.01 µM) [%],relative viability (621-102 (TSC2-deficient); 0.1 µM) [%],relative viability (621-102 (TSC2-deficient); 1 µM) [%],relative viability (621-102 (TSC2-deficient); 10 µM) [%],relative viability (621-103 (TSC2-rescued); 0.0001 µM) [%],relative viability (621-103 (TSC2-rescued); 0.001 µM) [%],relative viability (621-103 (TSC2-rescued); 0.01 µM) [%],relative viability (621-103 (TSC2-rescued); 0.1 µM) [%],relative viability (621-103 (TSC2-rescued); 1 µM) [%],relative viability (621-103 (TSC2-rescued); 10 µM) [%]
Cc1nnc(C(C)C)n1[C@H]1C[C@H]2CC[C@@H](C1)N2CC[C@H](NC(=O)C1CCC(F)(F)CC1)c1ccccc1 [Maraviroc (Selzentry)],94.8 ± 3.3,106 ± 1.5,107 ± 2.3,101 ± 2.6,108.3 ± 0.76,107 ± 1.8,100.6 ± 0.78,101 ± 2.7,99.264 ± 0.066,103 ± 2.9,98.1 ± 1.4,97.2 ± 1.1
N#Cc1c(O)c2c(-c3ccc(-c4ccccc4O)cc3)csc2[nH]c1=O,87.4 ± 2.6,101.1 ± 0.29,99.8 ± 4.8,93.17 ± 0.38,98.55 ± 0.91,87.2 ± 3.2,99.2 ± 3.3,95.56 ± 0.75,96.1 ± 3.5,97.25 ± 0.34,100.3 ± 0.89,105 ± 3.5
COc1cc2c(Nc3ccc(NC(=O)c4ccccc4)cc3)ncnc2cc1OCCCN1CCOCC1,97.1 ± 1.7,91.95 ± 0.3,108 ± 2,90.2 ± 5.2,79.6 ± 3.6,7.78 ± 0.95,104 ± 1.1,111 ± 4.9,104 ± 1.9,105 ± 1.6,95.8 ± 2.5,12.4 ± 0.25
COc1cc2ncnc(Nc3ccc(F)c(Cl)c3)c2cc1OCCCN1CCOCC1 [Gefitinib],111 ± 1.2,105.6 ± 0.46,106.5 ± 0.3,96.3 ± 4.1,100 ± 1.1,84.7 ± 1.8,101 ± 1.8,101 ± 1.2,102 ± 1.6,99.7 ± 1.1,99.2 ± 1.2,76.4 ± 3.7
CCC[C@H](N[C@@H](C)C(=O)N1[C@H](C(=O)O)C[C@@H]2CCCC[C@@H]21)C(=O)OCC [Perindopril Erbumine],101 ± 0.48,106 ± 0.46,98.6 ± 1.7,104.3 ± 0.76,107.29 ± 0.055,73.7 ± 4.8,103.3 ± 0.76,108.5 ± 0.44,84.6 ± 1.6,111 ± 3.4,98.7 ± 11,79.52 ± 0.69
Cc1nc(Nc2ncc(C(=O)Nc3c(C)cccc3Cl)s2)cc(N2CCN(CCO)CC2)n1 [Dasatinib],71.7 ± 5.2,85.1 ± 7.2,70.7 ± 7.3,67.6 ± 4.7,67.5 ± 5.2,49.9 ± 2.6,92.9 ± 1.8,79 ± 2,74.3 ± 4.4,73.9 ± 5.5,61.2 ± 4.1,47.4 ± 2
C[C@]12CC[C@@H]3c4ccc(O)cc4C[C@@H](CCCCCCCCC[S+]([O-])CCCC(F)(F)C(F)(F)F)[C@H]3[C@@H]1CC[C@@H]2O (some centres not stated) [Fulvestrant],119.5 ± 0.33,117.7 ± 1,115 ± 2.2,114.7 ± 0.26,120 ± 3.1,113 ± 3.3,104 ± 1.3,101.5 ± 0.32,100 ± 1.9,102.2 ± 0.13,103 ± 1.7,104 ± 1.2
COc1cc(Nc2ncc(F)c(Nc3ccc4c(n3)NC(=O)C(C)(C)O4)n2)cc(OC)c1OC [R406],117 ± 2,110 ± 2.2,111 ± 1.2,109 ± 0.81,100.2 ± 0.76,117.2 ± 1.1,101 ± 1.9,100 ± 1.5,98.7 ± 1.4,99.27 ± 0.46,99.6 ± 1.3,89.7 ± 2.5
CCN1CCCC1CNC(=O)c1cc(S(=O)(=O)CC)c(N)cc1OC (configuration not stated) [Amisulpride],111 ± 3.8,100 ± 1.3,104.3 ± 0.84,105 ± 3,107.5 ± 0.4,110 ± 1.6,104 ± 1.8,105 ± 2.5,110.7 ± 0.99,103.5 ± 0.35,113 ± 4.8,114 ± 3.6
COc1cc2ncnc(Nc3cccc(Br)c3)c2cc1OC,96.7 ± 1,107 ± 3.8,115 ± 5.2,105.5 ± 0.2,107.6 ± 0.58,75.6 ± 6.2,102 ± 1.5,102 ± 1.7,103.2 ± 1,98.4 ± 2.3,101 ± 1.6,92.1 ± 4.8
O=C1CCc2cc(OCCCCc3nnnn3C3CCCCC3)ccc2N1 [Cilostazol],109 ± 1.2,102 ± 0.67,107.6 ± 0.99,109 ± 3,96.51 ± 0.85,101 ± 2.5,107.6 ± 0.22,100.9 ± 0.71,108 ± 1.6,104.6 ± 1,101 ± 3.3,97.51 ± 0.021
O=C1c2ccccc2C(=O)c2c1ccc(O)c2O [Alizarin],108 ± 2.3,110 ± 0.84,108 ± 4.6,105 ± 1.5,107 ± 2.9,83 ± 3,101 ± 1.6,102 ± 5,101.4 ± 0.27,99.9 ± 3.2,95.2 ± 4.5,97.3 ± 1.1
COc1ccc(-n2nc(C(N)=O)c3c2C(=O)N(c2ccc(N4CCCCC4=O)cc2)CC3)cc1 [Apixaban],107.9 ± 0.95,121 ± 0.2,112 ± 4.2,108 ± 3.1,91.79 ± 0.34,111 ± 2.4,117 ± 4.5,116.3 ± 0.34,115 ± 1.5,110 ± 3.2,104 ± 3.3,105 ± 4.6
CCN(CC)CCNC(=O)c1c(C)[nH]c(/C=C2\C(=O)Nc3ccc(F)cc32)c1C [Sunitinib Malate],98.8 ± 6.5,110 ± 7,107 ± 5.9,110 ± 3.6,125 ± 4.1,71 ± 1.9,102 ± 2.3,106 ± 1.5,105.8 ± 0.65,105 ± 1.8,103.2 ± 0.44,30.5 ± 0.91
COc1cc(OC)c(NC(=O)Nc2cc(C)on2)cc1Cl,83.6 ± 4.5,92 ± 5,97.3 ± 3.8,89.4 ± 4.5,96.7 ± 7,92.8 ± 3.9,113 ± 2.2,109 ± 3.5,105 ± 3.8,113 ± 2.9,109 ± 2.6,111 ± 2.2
O=C(O)CC[C@H]1CC[C@@](c2cc(F)ccc2F)(S(=O)(=O)c2ccc(Cl)cc2)CC1 [MK-0752],108 ± 3.6,104 ± 3.3,102 ± 3.8,98.1 ± 2.5,101.6 ± 0.5,97 ± 5,115 ± 4.2,108 ± 0.7,107 ± 1.9,111.21 ± 0.076,106 ± 5.4,111 ± 1.3
